The results in this text go back to article PMC7466159, “Anti-Metastasis Fascin Inhibitors Decrease the Growth of Specific Subtypes of Cancers” (Cancers, 2020).

For data set [1], the system named is phosphorylation of ERK, PLCγ1, and PI3K in HCC38 cells. The data set can be described thus: EGFR signaling pathway Western blotting, HCC38. Format: cell-based. Conditions: 10 ng/mL EGF, 30 µM, 24 h. The protocol:
(§1) MDA-MB-468 cells and HCC38 cells grew in the presence of EGF with or without NP-G2-044. […] Finally, we used the animal model to investigate whether the primary tumor growth of MDA-MB-468 cells was sensitive to fascin inhibitors. MDA-MB-468 tumor cells were implanted into the mammary gland of NSG mice, and these mice were randomly divided into four groups. One group of mice was used as control (Figure 6I). The second group of mice was treated with the fascin inhibitor NP-G2-044 (Figure 6I). The third group was treated with the EGFR inhibitor gefitnib (Figure 6I), and the fourth group was treated with the combination of NP-G2-044 + gefitinib (Figure 6I). […] We dissected the primary tumor tissues 55 days after the tumor implantation from some mice. […] Furthermore, the overall survival of the mice was analyzed (Figure 6K).
For the cell signal pathway analysis of breast cancer cells, HCC38 and MDA-MB-468 cells were plated in a 10-cm dish. After culture for 24 h, cells were incubated in serum-free medium for 16 h.

Data set [2] deals with MDA-MB-468 triple-negative breast cancer cells. The data set can be described thus: Cell growth assay, MDA-MB-468. Format: cell-based. As to conditions: MDA-MB-468 cells in culture, 10% serum.
A short description of data set [3]: Stability in plasma samples during bioanalysis. Format: physicochemical. As to conditions: after freeze-thaw, and during storage, processing and analysis.
Protocol: The concentrations of NP-G2-044 in plasma were determined using high performance liquid chromatography with tandem mass spectrometry (LC-MS/MS). All blood samples were transferred into a commercial tube containing potassium (K2) EDTA (ethylene diaminetetraacetic acid) and were processed for plasma. Samples were centrifuged (3000× g for 10 min at 2 to 8 °C) within one hour of collection. The assays used a Sciex API 4000 detector and nifedipine as an internal standard. The calibration ranges for NP-G2-044 were from 5.00 to 5000 ng/mL.
Data set [4] has as its system NCI-H660 human neuroendocrine prostate cancer cells.
Protocol: To investigate the effect of NP-G2-044 on the overall survival of mice bearing NCI-H660 tumors, NCI-H660 tumor cells were injected into the prostate of male NSG mice. NCI-H660 tumor-bearing mice were randomized into two groups. In the control group, the vehicle solvent was given (marked as the “control” group) (Figure 3F). In the second group, the mice were treated with NP-G2-044 (5 days per week by an oral gavage). NP-G2-044 treatment started on Day 7.
Human neuroendocrine prostate cancer NCI-H660 cells (1 × 10^5) suspended in PBS were injected into the prostate of male NSG mice (6- to 8-week old from the Jackson Lab) on day 0 as previously described [56]. Briefly, the abdomen was cleaned with iodine solution, and a 1-cm midline incision was created to expose the prostate gland. A 29-gauge needle and a 1-mL disposable syringe were used for the injection of the cell suspension. The needle was inserted into the middle portion of the right anterior lobe, and then was directed towards the cranial portion of the lobe. The abdominal wound was closed in 2 layers with surgical sutures. Starting on Day 7, NP-G2-044 or the control solvent was given once a day for 5 days a week by oral gavage. […] The death of the mice was used as the endpoint.
Data set [5] concerns HT cells. The data set can be described thus: Soft-agar colony formation assay, HT. Format: cell-based. As to conditions: 14 days, dosage-dependent. Here is the method: A total of 1 × or 2 ×10^4 cells were suspended in 0.5 mL of 0.3% low melting point agar (Merck KGaA, Darmstadt, Germany) in RPMI-1640 or DMEM containing 10% FBS and control solvent or the inhibitors. This suspension was overlaid on pre-solidified with 0.6% agar in the same medium in 24-well plates as previously described. Normal growth medium containing control solvent or the inhibitors was gently layered over the cultures every 4 days for 14 days. The colonies were stained with 0.1% crystal violet for 1 h at room temperature and counted under a microscope.

In data set [6] the test system is HT cells. The data set can be described thus: Cell growth assay, HT. Conditions: HT cells in culture, 4 days.
Protocol: We then extended our search to other types of lymphoma cells. […] Both U2932 and Ly10 cells are ABC-subtype DLBCLs, and HT cells are diffuse mixed lymphoma.
For NP-G2-044 dose-dependent studies, 1 × 10^5 Ly10, U2932, or HT cells were seeded in a 12- or 24-well plate on day 0. A total of 1, 3, 10, 30, or 100 μM NP-G2-044 or control solvent was added to the plates. Cells were collected and counted on day 4. For time-dependent studies, 1 × 10^5 Ly10, U2932, or HT cells were seeded in a 12- or 24-well plate on day 0. A total of 30 μM NP-G2-044, 5 μM LY2409881, 30 μM NP-G2-044 plus 5 μM LY2409881, or control solvent was added to the plates. Cells were collected and counted on Days 2 and 4. […] The cell growth index was expressed as the fold changes of cell numbers over the starting cell number. For these assays, the old medium was changed with a fresh medium containing the control solvent or the inhibitors every two days.
For a further data set, the system named is MDA-MB-468 tumor cells. The data set can be described thus: MDA-MB-468 breast cancer model in NSG mice (tumor growth, overall survival). Format: in vivo. Conditions: treatment from Day 14, compared with the control group. The protocol:
as §1
For the breast cancer model, MDA-MB-468 cells (5 × 10^6) suspended in PBS-matrigel (v/v, 1:1) were injected subcutaneously into the abdominal mammary gland area of female NSG mice on Day 0 as previously described. Starting on Day 14, NP-G2-044 was given once a day for 5 days every week by gavage at 300 mg kg^−1 per mouse until their death. Starting on Day 14, gefitinib was given twice weekly by gavage at 150 mg kg^−1 per mouse until their death. The control solvent was given once a day for 5 days every week by gavage according to their body weight until their death. […] The primary tumor volume was calculated as length × width^2 ×π/6.

In data set [7] the test system is MDA-MB-231 human triple-negative breast cancer cells. The data set can be described thus: Overall survival of MDA-MB-231 tumor-bearing mice. It counts as in vivo. Here is the method: The numbers of metastatic MDA-MB-231 cells in lungs were determined by a clonogenic assay. The lungs were removed from each mouse once sacrificed, and the resulting cells were suspended and plated with a series of dilutions in 10-cm tissue culture dishes in medium containing 2.0 µg/mL puromycin for clonogenic growth. As these MBA-MB-231 tumor cells were stably transfected with the vector pSuper-puro, the metastasized tumor cells formed foci after 14 days, at which time they were fixed with 4% paraformaldehyde and stained with crystal violet staining solution for counting. For combination treatments with chemotherapy, MDA-MB-231 tumor cells (1 × 10^5) suspended in PBS-matrigel (v/v, 1:1) were injected subcutaneously into the abdominal mammary gland area of mice on Day 0. Starting on Day 0, 7, or 14, NP-G2-044 was given to mice once a day for 6 days every week by oral gavage at 300 mg/kg per mouse. A vehicle solvent was given to the control mice once a day for 6 days every week. Starting on day 14, doxorubicin hydrochloride (MilliporeSigma, St. Louis, MO, USA) (2 mg/kg) and cyclophosphamide monohydrate (MilliporeSigma) (60 mg/kg) were given to mice once a week for four weeks. Primary tumors were removed on day 28. The death of the mice was used as the endpoint.

Data set [8] relates to HCC38 triple-negative breast cancer cells. The data set can be described thus: Cell growth assay, HCC38. Format: cell-based. Conditions: HCC38 cells in culture, 10% serum.
Data set [9] relates to NF-κB nuclear translocation in HT cells. The data set can be described thus: p65 (NF-κB) nuclear translocation, Western blotting, HT. Conditions: 30 µM, 16 h. Format: cell-based.
For data set [10], the system named is BT-20 triple-negative breast cancer cells. The data set can be described thus: Cell growth assay, BT-20. As to conditions: BT-20 cells in culture, 10% serum. It counts as cell-based.

With `Cc1occc1C(=O)Nc1nn(Cc2ccc(C(F)(F)F)cc2)c2ccccc12` [NP-G2-044], the “phosphorylation of ERK, PLCγ1, and PI3K” value in [1] is recorded as “affected”. Besides, the growth sensitivity result in data set [2], in data set [8] and in [10] was “sensitive” throughout. Further, the stability result in data set [3] is “stable”. In addition, the “increase of median overall survival” value is on record as 50% in data set [4] (male NSG mice, oral gavage 5 days per week from Day 7, compared with control group, log-rank p < 0.001); ~ 50% in the data set on MDA-MB-468 tumor cells; ~ 29% in [7] (NSG mice, compared with the control group, primary tumors removed on day 28). Also, the “tolerability of dosage regimen” value in data set [4] (mouse, in vivo, po) is on record as “well tolerated with no signs of overt toxicity”. Further, the “number of growing colonies” value in the data set on HT cells [5] is reported as “decreased the number of growing colonies”. Moreover, the “effect on cell growth” value in the data set on HT cells [6] was “inhibitory effect”. Also, in the data set with MDA-MB-468 tumor cells, the “growth of primary tumors” value is reported as “reduced the growth of primary tumors to the same degree”. Also, in [7] (combination with chemotherapy, NP-G2-044 starting on Day 0 and Day 7 versus Day 14), the “overall survival by start of treatment” value was “longer overall survival”. In data set [9], the “nuclear translocation of the p65 subunits” value is listed as “also observed”.
